Test results: US11051515B2, “3-acyl-benzamides and their use as herbicides” (Bayer Aktiengesellschaft, priority 2017, dated 2021)

Experiments:
AVEFA [1] = experiment: Pre-emergence action against AVEFA; assay type: in vivo, Avena fatua; details: dosage 320 g/ha, scored visually after 3 weeks vs untreated controls
In short: (§1)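 Seeds sown in sandy loam in wood-fiber pots and covered with soil. Greenhouse growth; visual damage scored after 3 weeks versus untreated controls (100% = dead, 0% = like control).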

DIGSA [2] = experiment: Pre-emergence action against DIGSA; assay type: in vivo, Digitaria sanguinalis; details: dosage 320 g/ha, scored visually after 3 weeks vs untreated controls
In short: as §1

ALOMY = experiment: Pre-emergence action against ALOMY; assay type: in vivo, Alopecurus myosuroides; details: dosage 320 g/ha, pre-emergence, scored visually after 3 weeks vs untreated controls, 100% = plants have died, 0% = like control plants
In short: as §1

ABUTH [3] = experiment: Post-emergence action against ABUTH; assay type: in vivo, Abutilon theophrasti; details: post-emergence, dosage 80 g/ha, visual assessment about 3 weeks after treatment vs untreated controls
In short: (§2)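 Post-emergence foliar spray on greenhouse plants at the one-leaf stage, using wettable-powder or emulsion-concentrate formulations in water (600 to […], plus 0.2% wetting agent). Damage scored by eye roughly 3 weeks later against untreated plants: 0% = like control, 100% = dead.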

AVEFA [4] = experiment: Post-emergence action against AVEFA; assay type: in vivo, Avena fatua; details: post-emergence, dosage 80 g/ha, visual assessment about 3 weeks after treatment vs untreated controls
In short: as §2

VIOTR [5] = experiment: Pre-emergence action against VIOTR; assay type: in vivo, Viola tricolor; details: Dosage 320 g/ha, pre-emergence
In short: as §1

POLCO [6] = experiment: Post-emergence action against POLCO; assay type: in vivo, Polygonum convolvulus; details: Fallopia convolvulus, 504 h; post-emergence, dosage 80 g/ha
In short: as §2

PHBPU [7] = experiment: Pre-emergence action against PHBPU; assay type: in vivo, Pharbitis purpurea; details: Dosage 320 g/ha, pre-emergence
In short: as §1

SETVI [8] = experiment: Pre-emergence action against SETVI; assay type: in vivo, Setaria viridis; details: pre-emergence, dosage 320 g/ha, scored visually after 3 weeks vs untreated controls
In short: as §1

MATIN [9] = experiment: Pre-emergence action against MATIN; assay type: in vivo, Matricaria inodora; details: Dosage 320 g/ha, pre-emergence
In short: as §1

VERPE [10] = experiment: Post-emergence action against VERPE; assay type: in vivo, Veronica persica; details: dosage 80 g/ha
In short: as §2

POLCO [11] = experiment: Pre-emergence action against POLCO; assay type: in vivo, Polygonum convolvulus; details: Fallopia convolvulus, 504 h; Dosage 320 g/ha, pre-emergence
In short: as §1

PHBPU [12] = experiment: Post-emergence action against PHBPU; assay type: in vivo, Pharbitis purpurea; details: post-emergence, dosage 80 g/ha
In short: as §2

SETVI [13] = experiment: Post-emergence action against SETVI; assay type: in vivo, Setaria viridis; details: Setaria viridis, 504 h; post-emergence, dosage 80 g/ha, visual assessment about 3 weeks after treatment vs untreated controls; read-out: Post-emergence action against SETVI (herbicidal action in percent)
In short: as §2

VIOTR [14] = experiment: Post-emergence action against VIOTR; assay type: in vivo, Viola tricolor; details: post-emergence, dosage 80 g/ha
In short: as §2

HORMU = experiment: Pre-emergence action against HORMU; assay type: in vivo, Hordeum murinum; details: Dosage 320 g/ha
In short: as §1

AMARE [15] = experiment: Post-emergence action against AMARE; assay type: in vivo, Amaranthus retroflexus; details: post-emergence, dosage 80 g/ha, visual assessment about 3 weeks after treatment vs untreated controls
In short: as §2

STEME [16] = experiment: Post-emergence action against STEME; assay type: in vivo, Stellaria media; details: post-emergence, dosage 80 g/ha
In short: as §2

ABUTH [17] = experiment: Pre-emergence action against ABUTH; assay type: in vivo, Abutilon theophrasti; details: pre-emergence, dosage 320 g/ha, scored visually after 3 weeks vs untreated controls
In short: as §1

LOLRI = experiment: Pre-emergence action against LOLRI; assay type: in vivo, Lolium rigidum; details: dosage 320 g/ha, scored visually after 3 weeks vs untreated controls
In short: as §1

MATIN [18] = experiment: Post-emergence action against MATIN; assay type: in vivo, Matricaria inodora; details: post-emergence, dosage 80 g/ha, visual assessment about 3 weeks after treatment vs untreated controls
In short: as §2

STEME [19] = experiment: Pre-emergence action against STEME; assay type: in vivo, Stellaria media; details: Dosage 320 g/ha, pre-emergence
In short: as §1

AMARE [20] = experiment: Pre-emergence action against AMARE; assay type: in vivo, Amaranthus retroflexus; details: pre-emergence, dosage 320 g/ha, scored visually after 3 weeks vs untreated controls
In short: as §1

DIGSA [21] = experiment: Post-emergence action against DIGSA; assay type: in vivo, Digitaria sanguinalis; details: dosage 80 g/ha, visual assessment about 3 weeks after treatment vs untreated controls
In short: as §2

VERPE [22] = experiment: Pre-emergence action against VERPE; assay type: in vivo, Veronica persica; details: Dosage 320 g/ha, pre-emergence
In short: as §1

ECHCG [23] = experiment: Pre-emergence action against ECHCG; assay type: in vivo, Echinochloa crus-galli; details: pre-emergence, dosage 320 g/ha, scored visually after 3 weeks vs untreated controls
In short: as §1

ECHCG [24] = experiment: Post-emergence action against ECHCG; assay type: in vivo, Echinochloa crus-galli; details: post-emergence, dosage 80 g/ha, visual assessment about 3 weeks after treatment vs untreated controls
In short: as §2

Compound: Cn1nnnc1NC(=O)c1ccc(C(F)(F)F)c(C(=O)C(F)F)c1Cl [1-163]
- pest or weed control at 320 g/ha (AVEFA [1]; Avena fatua, 504 h, read-out: Pre-emergence action against AVEFA (herbicidal activity)): 100%
- Pre-emergence action against DIGSA (herbicidal activity) (DIGSA [2]): 100%
- pest or weed control at 320 g/ha (ALOMY; Alopecurus myosuroides, 504 h, read-out: Pre-emergence action against ALOMY (herbicidal activity in percent)): 90%
- pest or weed control at 80 g/ha (ABUTH [3]; Abutilon theophrasti, 504 h, read-out: Post-emergence action against ABUTH (herbicidal action in percent)): 90%
- pest or weed control at 80 g/ha (AVEFA [4]; Avena fatua, 504 h, read-out: Post-emergence action against AVEFA (herbicidal action in percent)): 90%
- pest or weed control at 320 g/ha (VIOTR [5]; Viola tricolor, 504 h): 100%
- pest or weed control at 80 g/ha (POLCO [6]): 100%
- pest or weed control at 320 g/ha (PHBPU [7]; Ipomoea purpurea, 504 h): 80%
- pest or weed control at 320 g/ha (SETVI [8]; Setaria viridis, 504 h, read-out: SETVI (Table B8, pre-emergence herbicidal activity)): 100%
- pest or weed control at 320 g/ha (MATIN [9]; Tripleurospermum inodorum, 504 h): 100%
- pest or weed control at 80 g/ha (VERPE [10]; Veronica persica, 504 h): 90%
- pest or weed control at 320 g/ha (POLCO [11]): 90%
- pest or weed control at 80 g/ha (PHBPU [12]; Ipomoea purpurea, 504 h): 90%
- pest or weed control at 80 g/ha (SETVI [13]): 80%
- pest or weed control at 80 g/ha (VIOTR [14]; Viola tricolor, 504 h): 90%
- pest or weed control at 320 g/ha (HORMU; Hordeum murinum, 504 h): 90%
- pest or weed control at 80 g/ha (AMARE [15]; Amaranthus retroflexus, 504 h, read-out: Post-emergence action against AMARE (herbicidal action in percent)): 90%
- pest or weed control at 80 g/ha (STEME [16]; Stellaria media, 504 h): 100%
- pest or weed control at 320 g/ha (ABUTH [17]; Abutilon theophrasti, 504 h, read-out: Pre-emergence action against ABUTH (herbicidal activity)): 100%
- pest or weed control at 320 g/ha (LOLRI; Lolium rigidum, 504 h, read-out: Pre-emergence action against LOLRI (herbicidal activity)): 90%
- pest or weed control at 80 g/ha (MATIN [18]; Tripleurospermum inodorum, 504 h, read-out: Post-emergence action against MATIN (herbicidal action in percent)): 90%
- pest or weed control at 320 g/ha (STEME [19]; Stellaria media, 504 h): 100%
- pest or weed control at 320 g/ha (AMARE [20]; Amaranthus retroflexus, 504 h, read-out: Pre-emergence action against AMARE (herbicidal activity)): 100%
- Post-emergence action against DIGSA (herbicidal action in percent) (DIGSA [21]): 100%
- pest or weed control at 320 g/ha (VERPE [22]; Veronica persica, 504 h): 100%
- pest or weed control at 320 g/ha (ECHCG [23]; Echinochloa crus-galli, 504 h, read-out: Pre-emergence action against ECHCG (herbicidal activity)): 100%
- pest or weed control at 80 g/ha (ECHCG [24]; Echinochloa crus-galli, 504 h, read-out: Post-emergence action against ECHCG (herbicidal action in percent)): 90%

Compound: CSc1c(C(=O)Nc2nnnn2C)ccc(C(F)(F)F)c1C(=O)C1CCC1 [1-284]
- Pre-emergence action against AVEFA (herbicidal activity) (AVEFA [1]): 90%
- Pre-emergence action against DIGSA (herbicidal activity) (DIGSA [2]): 100%
- Pre-emergence action against ALOMY (herbicidal activity in percent) (ALOMY): 90%
- Post-emergence action against ABUTH (herbicidal action in percent) (ABUTH [3]): 100%
- Post-emergence action against AVEFA (herbicidal action in percent) (AVEFA [4]): 80%
- Pre-emergence action against VIOTR (VIOTR [5]): 90%
- Pre-emergence action against PHBPU (PHBPU [7]): 80%
- SETVI (Table B8, pre-emergence herbicidal activity) (SETVI [8]): 100%
- Pre-emergence action against MATIN (MATIN [9]): 100%
- Post-emergence action against VERPE (VERPE [10]): 90
- Post-emergence action against PHBPU (PHBPU [12]): 90
- Post-emergence action against VIOTR (VIOTR [14]): 100
- Pre-emergence action against HORMU (HORMU): 80%
- Post-emergence action against AMARE (herbicidal action in percent) (AMARE [15]): 100%
- Post-emergence action against STEME (STEME [16]): 100
- Pre-emergence action against ABUTH (herbicidal activity) (ABUTH [17]): 100%
- Pre-emergence action against LOLRI (herbicidal activity) (LOLRI): 90%
- Post-emergence action against MATIN (herbicidal action in percent) (MATIN [18]): 100%
- Pre-emergence action against STEME (STEME [19]): 100%
- Pre-emergence action against AMARE (herbicidal activity) (AMARE [20]): 100%
- Post-emergence action against DIGSA (herbicidal action in percent) (DIGSA [21]): 90%
- Pre-emergence action against VERPE (VERPE [22]): 100%
- Pre-emergence action against ECHCG (herbicidal activity) (ECHCG [23]): 100%
- Post-emergence action against ECHCG (herbicidal action in percent) (ECHCG [24]): 100%
